Two compounds from PMC3376217 (2012) can be followed below.

Read-outs that look alike come from different tables or passages of the source.

Experiment [1] concerns the target T1, TOR2 (Saccharomyces cerevisiae, UniProt P32600). Nature of the experiment: IP radiometric kinase assay on PHAS-I. The experiment is classed as biochemical.
In experiment [2] the target is T1, TOR2. The experiment can be described thus: IP radiometric kinase assay on PHAS-I. The experiment is classed as biochemical. This is another data set of the same source.

With `Nc1ccc(-c2ccc3ncc4ccc(=O)n(-c5ccc(F)c(C(F)(F)F)c5)c4c3c2)cn1` [QL-IX-55], the IC50 (commonly the concentration needed to halve the response being measured) against TOR2 [1] is about 50 nM. `CCC(=O)N1CCN(c2ccc(-n3c(=O)ccc4cnc5ccc(-c6cnc7ccccc7c6)cc5c43)cc2C(F)(F)F)CC1` [Torin1] had an IC50 against TOR2 [2] of 250 to 500 nM.
